Measured values: PMC6591251, “Discovery of potent necroptosis inhibitors targeting RIPK1 kinase activity for the treatment of inflammatory disorder and cancer metastasis” (Cell Death & Disease, 2019)

Key:
Test in all cases: RBC kinase panel
Type in all cases: biochemical
Settings in all cases: ATP 10 μM, Data1, Data2
[1] = target: T1, CHK1 (Homo sapiens, UniProt O14757)
T1 construct: purchased Reaction Biology Corporation
Experimental: (§1) PK68 was tested at 1 μM in duplicate against a panel of 369 human kinases at Reaction Biology Corporation. Results are viewed in the human kinome phylogenetic tree.
(§2) ^a Compound PK68 was tested at 1 μM in duplicate against 369 kinases using the RBC kinase panel service of Reaction Biology Corporation. All the ATP concentrations used were 10 μM. […] Full protocol details are available at http://www.reactionbiology.com.

[2] = target: T2, LCK (Homo sapiens, UniProt P06239)
T2 construct: purchased Reaction Biology Corporation
Experimental: as §1, §2

[3] = target: T3, CAMKK1 (Homo sapiens, UniProt Q8N5S9)
T3 construct: purchased Reaction Biology Corporation
Experimental: as §1, §2

[4] = target: T4, CK1epsilon (Homo sapiens, UniProt P49674)
T4 construct: purchased Reaction Biology Corporation
Experimental: as §1, §2

[5] = target: T5, RSK4 (Homo sapiens, UniProt Q9UK32)
T5 construct: purchased Reaction Biology Corporation
T5 sequence (Q9UK32 whole entry): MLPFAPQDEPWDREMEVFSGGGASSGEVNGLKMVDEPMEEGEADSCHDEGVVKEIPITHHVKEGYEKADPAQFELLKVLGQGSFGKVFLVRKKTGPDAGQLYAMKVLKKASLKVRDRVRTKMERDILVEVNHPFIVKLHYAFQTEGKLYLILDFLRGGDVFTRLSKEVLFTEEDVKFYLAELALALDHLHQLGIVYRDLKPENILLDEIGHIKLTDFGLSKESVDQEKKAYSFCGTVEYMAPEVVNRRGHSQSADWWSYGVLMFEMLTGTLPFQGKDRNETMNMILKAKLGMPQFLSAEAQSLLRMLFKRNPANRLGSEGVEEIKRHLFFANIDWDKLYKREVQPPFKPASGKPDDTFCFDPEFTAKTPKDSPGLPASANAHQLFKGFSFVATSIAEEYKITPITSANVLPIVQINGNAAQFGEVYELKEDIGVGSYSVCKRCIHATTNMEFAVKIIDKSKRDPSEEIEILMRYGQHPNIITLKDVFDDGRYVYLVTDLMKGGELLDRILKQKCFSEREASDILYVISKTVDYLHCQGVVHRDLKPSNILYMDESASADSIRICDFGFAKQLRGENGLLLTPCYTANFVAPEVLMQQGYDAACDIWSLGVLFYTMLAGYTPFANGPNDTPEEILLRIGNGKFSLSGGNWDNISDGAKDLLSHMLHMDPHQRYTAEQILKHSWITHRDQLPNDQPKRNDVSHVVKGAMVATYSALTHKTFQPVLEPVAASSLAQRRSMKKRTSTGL
Experimental: as §1, §2

[6] = target: T6, TTBK2 (Homo sapiens, UniProt Q6IQ55)
T6 construct: purchased Reaction Biology Corporation
Experimental: as §1, §2

[7] = target: T7, ROCK2 (Homo sapiens, UniProt O75116)
T7 construct: purchased Reaction Biology Corporation
Experimental: as §1, §2

[8] = target: T8, IRAK1 (Homo sapiens, UniProt P51617)
T8 construct: purchased Reaction Biology Corporation
Experimental: as §1, §2

[9] = target: T9, YES/YES1 (Homo sapiens, UniProt P07947)
T9 construct: purchased Reaction Biology Corporation
Experimental: as §1, §2

[10] = target: T10, TBK1 (Homo sapiens, UniProt Q9UHD2)
T10 construct: purchased Reaction Biology Corporation
Experimental: as §1, §2

[11] = target: T11, p70S6K/RPS6KB1 (Homo sapiens, UniProt P23443)
T11 construct: purchased Reaction Biology Corporation
T11 sequence (P23443 whole entry): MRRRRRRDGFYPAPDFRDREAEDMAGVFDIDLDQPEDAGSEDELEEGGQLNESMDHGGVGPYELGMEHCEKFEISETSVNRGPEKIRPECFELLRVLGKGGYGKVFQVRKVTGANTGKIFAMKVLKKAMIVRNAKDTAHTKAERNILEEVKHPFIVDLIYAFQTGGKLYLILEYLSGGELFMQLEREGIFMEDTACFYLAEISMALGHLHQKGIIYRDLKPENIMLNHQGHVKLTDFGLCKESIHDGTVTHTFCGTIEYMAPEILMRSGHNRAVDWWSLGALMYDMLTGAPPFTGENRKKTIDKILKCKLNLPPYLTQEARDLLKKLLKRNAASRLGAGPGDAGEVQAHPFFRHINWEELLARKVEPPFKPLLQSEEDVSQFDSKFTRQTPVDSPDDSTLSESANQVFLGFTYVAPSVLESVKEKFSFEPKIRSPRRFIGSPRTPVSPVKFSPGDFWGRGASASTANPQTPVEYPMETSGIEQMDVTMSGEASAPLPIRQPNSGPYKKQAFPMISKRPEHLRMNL
Experimental: as §1, §2

[12] = target: T12, Aurora A (Homo sapiens, UniProt O14965)
T12 construct: purchased Reaction Biology Corporation
Experimental: as §1, §2

[13] = target: T13, CAMKK2 (Homo sapiens, UniProt Q96RR4)
T13 construct: purchased Reaction Biology Corporation
T13 sequence (Q96RR4 whole entry): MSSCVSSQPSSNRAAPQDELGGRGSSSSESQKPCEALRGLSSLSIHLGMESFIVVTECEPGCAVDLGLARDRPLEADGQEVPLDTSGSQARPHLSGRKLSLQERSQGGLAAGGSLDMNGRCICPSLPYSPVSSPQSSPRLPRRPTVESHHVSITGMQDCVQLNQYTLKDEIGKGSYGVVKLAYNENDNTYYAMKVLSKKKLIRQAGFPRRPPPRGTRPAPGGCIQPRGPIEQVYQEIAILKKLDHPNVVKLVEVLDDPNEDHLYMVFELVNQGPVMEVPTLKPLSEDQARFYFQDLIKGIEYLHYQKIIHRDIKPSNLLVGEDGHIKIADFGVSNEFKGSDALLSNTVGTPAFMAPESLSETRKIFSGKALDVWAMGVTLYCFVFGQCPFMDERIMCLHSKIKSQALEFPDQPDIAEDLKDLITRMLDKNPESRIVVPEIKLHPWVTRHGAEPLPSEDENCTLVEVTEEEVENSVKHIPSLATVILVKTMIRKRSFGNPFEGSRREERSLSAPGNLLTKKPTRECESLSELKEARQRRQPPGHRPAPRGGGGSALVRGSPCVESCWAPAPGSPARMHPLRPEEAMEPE
Experimental: as §1, §2

[14] = target: T14, MAPKAPK5/PRAK (Homo sapiens, UniProt Q8IW41)
T14 construct: purchased Reaction Biology Corporation
Experimental: as §1, §2

[15] = target: T15, MRCKa/CDC42BPA (Homo sapiens, UniProt Q5VT25)
T15 construct: purchased Reaction Biology Corporation
Experimental: as §1, §2

[16] = target: T16, AKT3 (Homo sapiens, UniProt Q9Y243)
T16 construct: purchased Reaction Biology Corporation
T16 sequence (Q9Y243 whole entry): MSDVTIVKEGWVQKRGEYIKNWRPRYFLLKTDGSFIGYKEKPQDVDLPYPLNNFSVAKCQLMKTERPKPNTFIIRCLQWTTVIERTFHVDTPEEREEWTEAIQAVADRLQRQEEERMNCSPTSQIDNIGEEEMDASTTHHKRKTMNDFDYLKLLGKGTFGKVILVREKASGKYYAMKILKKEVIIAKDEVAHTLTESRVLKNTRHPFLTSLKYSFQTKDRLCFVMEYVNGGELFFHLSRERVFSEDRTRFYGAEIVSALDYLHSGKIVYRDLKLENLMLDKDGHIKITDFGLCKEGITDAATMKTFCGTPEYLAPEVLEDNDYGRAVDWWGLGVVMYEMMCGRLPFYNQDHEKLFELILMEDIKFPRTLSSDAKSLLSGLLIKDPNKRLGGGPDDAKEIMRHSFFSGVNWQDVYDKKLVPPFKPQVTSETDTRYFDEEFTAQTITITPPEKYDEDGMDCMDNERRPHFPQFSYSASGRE
Experimental: as §1, §2

[17] = target: T17, GLK/MAP4K3 (Homo sapiens, UniProt Q8IVH8)
T17 construct: purchased Reaction Biology Corporation
Experimental: as §1, §2

[18] = target: T18, GCK/MAP4K2 (Homo sapiens, UniProt Q12851)
T18 construct: purchased Reaction Biology Corporation
Experimental: as §1, §2

[19] = target: T19, PAK2 (Homo sapiens, UniProt Q13177)
T19 construct: purchased Reaction Biology Corporation
Experimental: as §1, §2

[20] = target: T20, SBK1 (Homo sapiens, UniProt Q52WX2)
T20 construct: purchased Reaction Biology Corporation
T20 sequence (Q52WX2 whole entry): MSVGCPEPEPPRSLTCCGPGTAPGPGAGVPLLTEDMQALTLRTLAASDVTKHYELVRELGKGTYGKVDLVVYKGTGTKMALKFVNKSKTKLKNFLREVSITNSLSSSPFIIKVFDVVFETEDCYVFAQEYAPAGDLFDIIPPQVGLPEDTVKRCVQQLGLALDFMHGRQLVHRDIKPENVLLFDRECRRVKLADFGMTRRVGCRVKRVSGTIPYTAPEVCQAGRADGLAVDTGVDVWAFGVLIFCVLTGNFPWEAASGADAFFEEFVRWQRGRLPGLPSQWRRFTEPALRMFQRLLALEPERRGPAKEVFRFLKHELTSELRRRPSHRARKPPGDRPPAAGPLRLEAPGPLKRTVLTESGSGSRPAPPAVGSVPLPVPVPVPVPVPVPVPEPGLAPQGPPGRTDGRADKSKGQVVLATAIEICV
Experimental: as §1, §2

[21] = target: T21, RET (Homo sapiens, UniProt P07949)
T21 construct: purchased Reaction Biology Corporation
Experimental: as §1, §2

[22] = target: T22, PKCtheta (Homo sapiens, UniProt Q04759)
T22 construct: purchased Reaction Biology Corporation
Experimental: as §1, §2

[23] = target: T23, IGF1R (Homo sapiens, UniProt P08069)
T23 construct: purchased Reaction Biology Corporation
T23 sequence (P08069 31-1367): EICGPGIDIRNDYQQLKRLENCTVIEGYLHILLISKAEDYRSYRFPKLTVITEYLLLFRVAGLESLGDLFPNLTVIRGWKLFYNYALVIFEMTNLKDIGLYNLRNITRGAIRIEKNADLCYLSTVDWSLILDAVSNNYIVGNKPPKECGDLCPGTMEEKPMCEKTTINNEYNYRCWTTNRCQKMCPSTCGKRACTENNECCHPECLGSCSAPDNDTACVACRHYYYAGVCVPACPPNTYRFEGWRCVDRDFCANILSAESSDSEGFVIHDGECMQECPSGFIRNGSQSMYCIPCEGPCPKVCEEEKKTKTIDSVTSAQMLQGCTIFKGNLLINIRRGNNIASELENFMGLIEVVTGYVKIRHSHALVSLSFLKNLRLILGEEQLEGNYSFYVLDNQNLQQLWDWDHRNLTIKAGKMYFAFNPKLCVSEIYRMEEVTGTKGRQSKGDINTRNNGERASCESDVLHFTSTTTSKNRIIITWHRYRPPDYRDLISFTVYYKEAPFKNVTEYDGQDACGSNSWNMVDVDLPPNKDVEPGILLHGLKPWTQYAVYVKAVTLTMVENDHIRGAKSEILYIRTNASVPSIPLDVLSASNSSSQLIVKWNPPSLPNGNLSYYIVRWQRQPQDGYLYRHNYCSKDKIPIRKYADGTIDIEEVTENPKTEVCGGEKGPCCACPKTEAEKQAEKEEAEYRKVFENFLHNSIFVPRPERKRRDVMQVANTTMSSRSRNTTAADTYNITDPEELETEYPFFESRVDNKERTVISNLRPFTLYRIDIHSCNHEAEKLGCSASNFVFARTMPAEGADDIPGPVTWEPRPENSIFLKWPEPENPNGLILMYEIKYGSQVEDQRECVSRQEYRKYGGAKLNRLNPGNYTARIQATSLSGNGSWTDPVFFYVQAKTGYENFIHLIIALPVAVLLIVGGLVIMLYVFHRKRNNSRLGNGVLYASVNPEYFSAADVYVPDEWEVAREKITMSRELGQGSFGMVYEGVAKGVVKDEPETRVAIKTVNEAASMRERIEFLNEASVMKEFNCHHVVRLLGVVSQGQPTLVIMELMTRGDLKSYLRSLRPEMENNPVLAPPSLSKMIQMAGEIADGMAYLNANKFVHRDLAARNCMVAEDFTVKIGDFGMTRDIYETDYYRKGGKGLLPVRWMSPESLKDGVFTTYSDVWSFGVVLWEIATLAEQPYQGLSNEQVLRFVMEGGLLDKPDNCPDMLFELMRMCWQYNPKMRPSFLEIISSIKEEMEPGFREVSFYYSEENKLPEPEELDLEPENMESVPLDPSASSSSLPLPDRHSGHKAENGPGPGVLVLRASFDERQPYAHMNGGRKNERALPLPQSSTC
Experimental: as §1, §2

[24] = target: T24, CDK1/cyclin A (Homo sapiens, UniProt P06493)
T24 construct: purchased Reaction Biology Corporation
Experimental: as §1, §2

[25] = target: T25, STK21/CIT (Homo sapiens, UniProt O14578)
T25 construct: purchased Reaction Biology Corporation
Experimental: as §1, §2

[26] = target: T26, TLK1 (Homo sapiens, UniProt Q9UKI8)
T26 construct: purchased Reaction Biology Corporation
Experimental: as §1, §2

[27] = target: T27, EPHA5 (Homo sapiens, UniProt P54756)
T27 construct: purchased Reaction Biology Corporation
Experimental: as §1, §2

[28] = target: T28, KHS/MAP4K5 (Homo sapiens, UniProt Q9Y4K4)
T28 construct: purchased Reaction Biology Corporation
Experimental: as §1, §2

[29] = target: T29, CDK2/cyclin O (Homo sapiens, UniProt P24941)
T29 construct: purchased Reaction Biology Corporation
Experimental: as §1, §2

[30] = target: T30, SGK1 (Homo sapiens, UniProt O00141)
T30 construct: purchased Reaction Biology Corporation
Experimental: as §1, §2

[31] = target: T31, GRK2 (Homo sapiens, UniProt P25098)
T31 construct: purchased Reaction Biology Corporation
Experimental: as §1, §2

[32] = target: T32, FGFR3 (Homo sapiens, UniProt P22607)
T32 construct: purchased Reaction Biology Corporation
T32 sequence (P22607 23-806): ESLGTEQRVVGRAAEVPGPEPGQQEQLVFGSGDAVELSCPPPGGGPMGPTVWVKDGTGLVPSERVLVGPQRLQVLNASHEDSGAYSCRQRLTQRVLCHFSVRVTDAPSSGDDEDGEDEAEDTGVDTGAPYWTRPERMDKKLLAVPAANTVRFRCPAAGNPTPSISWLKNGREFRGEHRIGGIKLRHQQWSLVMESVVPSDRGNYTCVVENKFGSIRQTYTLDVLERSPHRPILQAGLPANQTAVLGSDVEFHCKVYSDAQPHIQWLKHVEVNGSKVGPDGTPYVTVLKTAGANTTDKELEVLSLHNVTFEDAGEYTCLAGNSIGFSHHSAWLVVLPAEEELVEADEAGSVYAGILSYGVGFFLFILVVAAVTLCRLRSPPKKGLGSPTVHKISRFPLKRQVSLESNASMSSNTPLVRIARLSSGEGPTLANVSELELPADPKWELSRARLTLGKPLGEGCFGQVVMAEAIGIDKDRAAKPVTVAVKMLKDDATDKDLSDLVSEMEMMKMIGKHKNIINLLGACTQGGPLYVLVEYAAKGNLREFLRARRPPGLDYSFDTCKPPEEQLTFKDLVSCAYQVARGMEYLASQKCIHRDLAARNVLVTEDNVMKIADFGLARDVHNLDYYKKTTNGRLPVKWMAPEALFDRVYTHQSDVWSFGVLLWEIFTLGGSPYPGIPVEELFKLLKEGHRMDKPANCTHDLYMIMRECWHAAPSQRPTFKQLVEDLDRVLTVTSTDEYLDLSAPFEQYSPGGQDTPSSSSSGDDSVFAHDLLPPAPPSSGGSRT
Experimental: as §1, §2

[33] = target: T33, ROS/ROS1 (Homo sapiens, UniProt P08922)
T33 construct: purchased Reaction Biology Corporation
Experimental: as §1, §2

Q: Which results are given for `CC(=O)Nc1nc2ccc(-c3cnc(C)c(NC(=O)OC4CCCCC4)c3)cc2s1` [PK68, cyclohexyl (5-(2-acetamidobenzo[d]thiazol-6-yl)-2-methylpyridin-3-yl)carbamate]?
A: Activity% ([1]; 1 μM): 87.21%; activity at 1 µM [1]: 87.3%; Activity% ([2]; 1 μM): 62.75%; activity at 1 µM [2]: 62.9%; Activity% ([3]; 1 μM): 111.65%; activity at 1 µM [3]: 113%; Activity% ([4]; 1 μM): 74.35%; activity at 1 µM [4]: 78.2%; Activity% ([5]; 1 μM): 103.68%; activity at 1 µM [5]: 105%; Activity% ([6]; 1 μM): 98.08%; activity at 1 µM [6]: 98.4%; Activity% ([7]; 1 μM): 95.49%; activity at 1 µM [7]: 95.5%; Activity% ([8]; 1 μM): 90.54%; activity at 1 µM [8]: 92.5%; Activity% ([9]; 1 μM): 87.91%; activity at 1 µM [9]: 89.2%; Activity% ([10]; 1 μM): 96.55%; activity at 1 µM [10]: 97%; Activity% ([11]; 1 μM): 101.85%; activity at 1 µM [11]: 102%; Activity% ([12]; 1 μM): 95.24%; activity at 1 µM [12]: 95.4%; Activity% ([13]; 1 μM): 79.89%; activity at 1 µM [13]: 80.1%; Activity% ([14]; 1 μM): 97.02%; activity at 1 µM [14]: 97%; Activity% ([15]; 1 μM): 101.41%; activity at 1 µM [15]: 104%; Activity% ([16]; 1 μM): 98.71%; activity at 1 µM [16]: 100%; Activity% ([17]; 1 μM): 102.14%; activity at 1 µM [17]: 104%; Activity% ([18]; 1 μM): 96.82%; activity at 1 µM [18]: 97.6%; Activity% ([19]; 1 μM): 104.24%; activity at 1 µM [19]: 105%; Activity% ([20]; 1 μM): 102.75%; activity at 1 µM [20]: 104%; Activity% ([21]; 1 μM): 66.89%; activity at 1 µM [21]: 67.7%; Activity% ([22]; 1 μM): 97.50%; activity at 1 µM [22]: 101%; Activity% ([23]; 1 μM): 103.88%; activity at 1 µM [23]: 104%; Activity% ([24]; 1 μM): 96.92%; activity at 1 µM [24]: 97.2%; Activity% ([25]; 1 μM): 121.90%; activity at 1 µM [25]: 125%; Activity% ([26]; 1 μM): 97.39%; activity at 1 µM [26]: 99.2%; Activity% ([27]; 1 μM): 100.43%; activity at 1 µM [27]: 102%; Activity% ([28]; 1 μM): 75.34%; activity at 1 µM [28]: 76.5%; Activity% ([29]; 1 μM): 98.77%; activity at 1 µM [29]: 99.8%; Activity% ([30]; 1 μM): 93.47%; activity at 1 µM [30]: 93.8%; Activity% ([31]; 1 μM): 99.02%; activity at 1 µM [31]: 101%; Activity% ([32]; 1 μM): 90.12%; activity at 1 µM [32]: 90.5%; Activity% ([33]; 1 μM): 88.56%; activity at 1 µM [33]: 88.9%
